Data on one molecule can be found in patent US20150306110A1, “COMPOSITIONS AND METHODS FOR TREATMENT OF INFLAMMATION AND HYPERKERATOTIC LESIONS” (Novelix Pharmaceuticals, Inc., priority 2008, published 2015).

The test system of one data set is HAT 1080 (fibrosarcoma). Kind of data set: Cell growth/survival, HAT 1080 fibrosarcoma cells. To be noted: Homo sapiens, TP53 mut. The format is cell-based. How it is done:
(§1) Melanoma cell lines used in this study were maintained in Dulbecco's modified Eagle medium (DMEM with 4500 mg/l glucose) supplemented with 10% FCS from Gibco BRL (Life Technologies, Berlin, Germany). The canine mastocytoma cell line C2 (DeVinney et al, Am. J. Respir. Cell Mol. Biol. 3:413-20, 1990) was used in this study, along with additional human cell lines: RD-ES and TC-71 (human Ewing's sarcoma), SAOS2 (human osteosarcoma), HT-1080 (human fibrosarcoma), Caco-2 (human colon adenocarcinoma), A549 (human lung adenocarcinoma), Hep-G2 and Hep-3B (human hepatocellular carcinoma), SK-N-DZ and SK-N-FI (human embryonal neuroblastoma), HTB9 (human bladder cancer), MDA-468 and MCF-7 (human breast cancer) and SW872 liposarcoma. All breast cancer cells were routinely cultured in DMEM/F-12 or in DMEM alone supplemented with 10% FCS at 37° C. in a humidified 5% CO2 atmosphere. RD-ES and TC-71 sarcoma cell lines were maintained in RPMI 1640 (Biochrom KG, Berlin, Germany) containing 10% FCS at 37° C. in a humidified 5% CO2 atmosphere. […]
(§2) Briefly, cells were maintained in standard medium, harvested, and plated at equal densities (750,000 cells in 5 cm tissue culture dishes). […] For the assessment of cell growth, the number of surviving cells was determined using an automated cell counter from Beckman Coulter GmbH (Krefeld, Germany). […]

Data set [1] concerns canine mammary carcinoma, scent gland carcinoma, soft tissue sarcoma. Nature of the data set: Activity of NVX-207 in additional canine cancer patients (summary). The conditions noted are these: dog, in vivo. An excerpt: Overall survival time is given in months.
The subject of another data set is MDA-MB-468. Kind of data set: Cell growth/survival, MDA-MB-468 breast cancer cells. The format is cell-based. To be noted: Homo sapiens, TP53 mut. How it is done:
as §1, §2

Another data set relates to SK-N-DZ. Nature of the data set: Cell growth/survival, SK-N-DZ neuronal cancer cells. To be noted: Homo sapiens, TP53 mut. It is filed as cell-based. As for the experimental part:
as §1, §2

Another data set relates to A549. Nature of the data set: Cell growth/survival, A549 lung adenocarcinoma cells. It is filed as cell-based. To be noted: Homo sapiens, TP53 neg. As for the experimental part: as §1, §2
In a further data set the test system is Osteosarcoma-D17. Kind of data set: Cell growth/survival, canine osteosarcoma D17 cells. The format is cell-based. To be noted: Canis lupus familiaris.
The test system of another data set is RD-ES (Ewing's sarcoma). Kind of data set: Cell growth/survival, RD-ES Ewing's sarcoma cells. The format is cell-based. To be noted: Homo sapiens, TP53 mut. As for the experimental part: as §1, §2
Data set [2] relates to hyperkeratotic palpable lesion with inflammatory components. Nature of the data set: Topical treatment of human hyperkeratotic lesions with inflammatory components. The format is in vivo. The conditions noted are these: 1% topical solution. How it is done:
A 1% topical solution of NVX-207 (20% ethanol, 20% Tween® 80 and 80% water) was applied to human skin to treat a treatment resistant hyperkeratotic palpable lesion with inflammatory components. The NVX-207 was administered once a day on days 1, 2, 3, 10, 11, 12 and 13. Significant improvement (better than 80% reduction) was observed after one day, and additional improvement was observed after a total of six additional treatments applied within 14 days. […] A second identical lesion was treated with the same formulation twice a day for 2 days, and disappeared.

Data set [3] deals with canine lesion clinically diagnosed as basal cell carcinoma. Nature of the data set: Topical treatment of canine basal cell carcinoma. The format is in vivo, dog. An excerpt:
A 1% topical solution of NVX-207 in 20% ethanol, 20% Tween® 80 was applied to an exophytically growing slightly bleeding (on contact) tumor on the nose of a dog using a NVX-207 soaked cotton swab every second to third day for 7 weeks.

Data set [4] in a line: Solubility in ethanol, DMSO and ethanol-Tween 80. The format is physicochemical. To be noted: for solubility: organic solvent or mixture. As for the experimental part:
After solution in ethanol or DMSO, or chemically similar solvents, NVX-207 or a related compound may be formulated with co-solvents such as Cremophor EL® and/or Tween® 80, in a similar manner described for taxanes. For example, the formulation approach for paclitaxel (TAXOL®; Bristol-Myers Squibb) was to use 50% Cremophor EL® and 50% ethanol. The pharmaceutical formulation of paclitaxel contains 30 mg paclitaxel dissolved in 5 ml of this (1:1, v/v) mixture. These and equivalent formulations allow for the application of NVX-207 in sufficiently high concentrations not only for topical, but also for intralesional and systemic (intravenous infusion) use. Solubility of NVX-207 in ethanol was determined to be at least 300 mg/ml and reached 250 mg/ml in DMSO. […] The solubility of NVX-207 in ethanol-Tween® 80 was evaluated. Two-hundred mg of NVX-207 was dissolved in 1 ml ethanol. […] Then an equal volume of Tween® 80 was added, to achieve a stock solution of 100 mg/ml of NVX-207. The stock solution was clear and yellow. Each stock solution was diluted first 1:1 (50 mg/ml NVX-207), then 1:5 (20 mg/ml NVX-207) and finally 1:10 (10 mg/ml NVX-207) with water. […] NVX-207 therefore has, apart from its higher activity, significant advantages over betulinic acid, that include higher activity, better solubility in pharmaceutically suitable solvents, and better handling.

Molecules are shown by their SMILES. pIC50: −log10 of the molar value. ≈ marks a conversion by molar mass, not a printed value. A value given as a limit tells only on which side of the number the result lay.

In general, pIC50 refers to −log10 of the IC50, conventionally taken in molar units. Low readings indicate a large IC50, high ones a small IC50. What is called solubility is how much of the substance goes into solution per volume. In the case of `C=C(C)[C@@H]1CC[C@]2(C(=O)OCC(N)(CO)CO)CC[C@]3(C)[C@H](CC[C@@H]4[C@@]5(C)CC[C@H](OC(C)=O)C(C)(C)[C@@H]5CC[C@]43C)[C@@H]12` [NVX-207, 3-O-acetylbetulinic acid-2-amino-3-hydroxy-2-hydroxymethylpropyl ester], the pIC50 with HAT 1080 (fibrosarcoma) was 5.25; in the data set on MDA-MB-468, 5.44; in the data set on SK-N-DZ, 5.57; in the data set on A549, 5.60; with Osteosarcoma-D17, 5.42; in the data set on RD-ES (Ewing's sarcoma) it was 5.28. In addition, the Inflammation during treatment entry in [1] and in data set [3] (topical) was “absence of inflammation” each time. The “Deleterious (toxic) effects on the treated areas (inflammation, redness, swelling)” value in [2] is “No deleterious (toxic) effects”. Moreover, the “Improvement (reduction) of lesion” value in data set [2] (after one day) is reported as over 80%. Moreover, the Side effects entry in data set [2] (first lesion) is given as “No reddening, inflammation or any other side effects were observed”. Also, the Reduction of tumor entry in data set [3] (1% topical solution in 20% ethanol, 20% Tween 80 every second to third day, after 3 weeks) is listed as “about 90%”. The “Increase in solubility in DMSO compared to betulinic acid” value in [4] (DMSO) was “over 20 fold”. Further, in data set [4] (ethanol), the “Increase in solubility in ethanol compared to betulinic acid” value was “over 300 fold”. Also, the solubility is 250 mg/mL (≈ 415 mM) in data set [4] (Solubility in DMSO) and at least 300 mg/mL in data set [4] (Solubility in ethanol).
